Experimental data as given in patent US20240391936A1, “TETRAHYDROTHIENO PYRIDINE DERIVATIVES AS DDRS INHIBITORS” (CHIESI FARMACEUTICI S.P.A., priority 2021, published 2024).

Experiments:
DDR2 [1] = biological target: T1, DDR2 (Homo sapiens, UniProt Q16832); experiment: DDR2 cell based assay (phospho-ELISA in HEK293T-DDR2 recombinant cells); parameters: expressed in transfected cells; host or cells: HEK293T-DDR2 recombinant cells; details: bovine Type II Collagen 50 μg/ml
T1 sequence (Q16832 22-855): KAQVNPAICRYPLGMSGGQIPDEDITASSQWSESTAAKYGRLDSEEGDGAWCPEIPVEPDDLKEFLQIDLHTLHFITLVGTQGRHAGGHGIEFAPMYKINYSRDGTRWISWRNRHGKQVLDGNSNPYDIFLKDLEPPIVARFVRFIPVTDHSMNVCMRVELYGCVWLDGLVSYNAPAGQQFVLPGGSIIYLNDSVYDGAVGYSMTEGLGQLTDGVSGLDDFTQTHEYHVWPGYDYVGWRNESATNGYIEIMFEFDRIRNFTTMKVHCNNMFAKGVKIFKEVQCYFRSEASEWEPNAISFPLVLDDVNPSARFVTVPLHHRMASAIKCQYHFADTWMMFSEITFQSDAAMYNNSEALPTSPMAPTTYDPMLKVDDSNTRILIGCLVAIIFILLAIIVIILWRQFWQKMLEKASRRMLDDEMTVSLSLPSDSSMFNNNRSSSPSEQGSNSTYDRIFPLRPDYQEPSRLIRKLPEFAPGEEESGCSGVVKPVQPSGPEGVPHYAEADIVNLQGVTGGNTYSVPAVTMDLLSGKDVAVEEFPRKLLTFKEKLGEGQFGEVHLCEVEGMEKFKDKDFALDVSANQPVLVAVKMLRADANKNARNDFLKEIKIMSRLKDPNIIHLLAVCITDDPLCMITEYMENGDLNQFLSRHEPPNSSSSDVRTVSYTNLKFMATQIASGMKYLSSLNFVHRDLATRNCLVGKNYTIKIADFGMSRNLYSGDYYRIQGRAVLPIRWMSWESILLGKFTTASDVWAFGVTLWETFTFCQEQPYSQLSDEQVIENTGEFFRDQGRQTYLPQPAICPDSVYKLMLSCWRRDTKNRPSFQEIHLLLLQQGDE
Outline: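 HEK293T-DDR2 cells, serum-starved 3 h, treated with compounds 30 min before 3 h stimulation with bovine type II collagen at 50 μg/ml. Lysate phospho-DDR2 measured by ELISA, normalized to maximal-inhibition and collagen II (20 μg/ml) controls; IC50 from variable-slope sigmoidal fit.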

DDR1 [2] = biological target: T2, DDR1 (Homo sapiens, UniProt Q08345); experiment: DDR1 cell based assay (PathHunter U2OS DDR1 assay); parameters: host or cells: U2OS-DDR1 (PathHunter); details: U2OS-DDR1 cells, bovine Type II Collagen 20 μg/ml
Outline: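 Receptor activation measured by enzyme-fragment complementation luminescence in engineered U2OS cells. Compound added 30 min before overnight challenge with 20 μg/ml bovine collagen II; data scaled between vehicle and collagen-stimulated controls, IC50 derived by four-parameter variable-slope fitting.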

DDR1 [3] = biological target: T2, DDR1; experiment: DDR1 binding assay (LanthaScreen Europium Kinase Binding assay); parameters: purchased Carna Biosciences; details: binding assay, 5 nM DDR1, 20 nM Kinase Tracer 178; Ki from IC50 by Cheng-Prusoff; read-out: Ki DDR1
Outline: (§1)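 TR-FRET tracer-displacement format: 665/615 nm emission ratio (340 nm excitation) gave IC50 by 4-parameter fit, then Ki via Cheng-Prusoff. Each kinase at 5 nM with 2 nM Eu-anti-GST antibody and Tracer 178 (DDR1 20 nM, DDR2 10 nM), 1 h, room temperature, HEPES pH 7.5 buffer.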

DDR2 [4] = biological target: T1, DDR2; experiment: DDR2 binding assay (LanthaScreen Europium Kinase Binding assay); parameters: purchased Life Technologies; details: binding assay, 5 nM DDR2, 10 nM Kinase Tracer 178; Ki from IC50 by Cheng-Prusoff; read-out: Ki DDR2
Outline: as §1

T2 sequence (Q08345 19-913): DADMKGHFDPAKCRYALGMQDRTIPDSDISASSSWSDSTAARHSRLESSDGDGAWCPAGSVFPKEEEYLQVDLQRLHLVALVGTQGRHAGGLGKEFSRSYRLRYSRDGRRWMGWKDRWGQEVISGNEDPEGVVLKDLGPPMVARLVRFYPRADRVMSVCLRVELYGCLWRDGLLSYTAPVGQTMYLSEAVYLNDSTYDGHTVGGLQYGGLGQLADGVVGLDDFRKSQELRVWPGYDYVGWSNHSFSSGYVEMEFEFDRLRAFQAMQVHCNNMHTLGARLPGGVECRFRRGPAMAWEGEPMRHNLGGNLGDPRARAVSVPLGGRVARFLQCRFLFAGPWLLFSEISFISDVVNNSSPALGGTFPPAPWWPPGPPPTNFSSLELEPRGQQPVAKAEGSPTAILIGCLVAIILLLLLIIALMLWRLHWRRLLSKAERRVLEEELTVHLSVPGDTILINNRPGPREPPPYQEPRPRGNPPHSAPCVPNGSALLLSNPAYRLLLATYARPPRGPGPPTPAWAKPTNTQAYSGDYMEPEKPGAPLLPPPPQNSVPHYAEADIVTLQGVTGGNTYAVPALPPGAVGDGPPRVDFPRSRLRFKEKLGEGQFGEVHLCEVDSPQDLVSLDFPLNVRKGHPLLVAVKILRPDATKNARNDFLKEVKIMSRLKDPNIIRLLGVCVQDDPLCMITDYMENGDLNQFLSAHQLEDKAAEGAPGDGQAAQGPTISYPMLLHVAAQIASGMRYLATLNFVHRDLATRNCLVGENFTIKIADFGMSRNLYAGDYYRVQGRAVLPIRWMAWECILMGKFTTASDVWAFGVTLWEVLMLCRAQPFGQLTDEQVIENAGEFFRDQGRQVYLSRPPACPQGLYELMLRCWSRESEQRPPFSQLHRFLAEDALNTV

Structure (SMILES) | IC50 (DDR2 [1]) | IC50 (DDR1 [2]) | Ki (DDR1 [3]) | Ki (DDR2 [4])
O=C(Nc1cncc(C(F)(F)F)c1)c1csc2c1CCN(Cc1cnc3[nH]ncc3c1)C2 [Example 151, 6-(1H-pyrazolo[3,4-b]pyridin-5-ylmethyl)-N-[5-(trifluoromethyl)-3-pyridyl]-5,7-dihydro-4H-thieno[2,3-c]pyridine-3-carboxamide] | < 25 nM | < 25 nM | < 25 nM | < 25 nM
O=C(Nc1cncc(C(F)(F)F)c1)c1csc2c1CCN(Cc1cnc3ccnn3c1)C2 [Example 152, 6-(pyrazolo[1,5-a]pyrimidin-6-ylmethyl)-N-(5-(trifluoromethyl)pyridin-3-yl)-4,5,6,7-tetrahydrothieno[2,3-c]pyridine-3-carboxamide] | < 25 nM | < 25 nM | < 25 nM | < 25 nM
O=C(Nc1cncc(C(F)(F)F)c1)c1csc2c1CCN(Cc1cnc3cnccn13)C2 [Example 153, 6-(imidazo[1,2-a]pyrazin-3-ylmethyl)-N-(5-(trifluoromethyl)pyridin-3-yl)-4,5,6,7-tetrahydrothieno[2,3-c]pyridine-3-carboxamide] | < 25 nM | < 25 nM | < 25 nM | < 25 nM
CN(C)[C@@H]1CCN(Cc2cc(NC(=O)c3csc4c3CCN(Cc3cnc5[nH]ncc5c3)C4)cc(C(F)(F)F)c2)C1 [Example 158, (R)-6-((1H-pyrazolo[3,4-b]pyridin-5-yl)methyl)-N-(3-((3-(dimethylamino)pyrrolidin-1-yl)methyl)-5-(trifluoromethyl)phenyl)-4,5,6,7-tetrahydrothieno[2,3-c]pyridine-3-carboxamide] | 25 to 50 nM | < 25 nM | < 25 nM | < 25 nM
CN1CCN(c2ccc3ncc(C(=O)N4CCc5c(C(=O)Nc6cncc(C(F)(F)F)c6)csc5C4)n3c2)CC1 [Example 165, 6-(6-(4-methylpiperazin-1-yl)imidazo[1,2-a]pyridine-3-carbonyl)-N-(5-(trifluoromethyl)pyridin-3-yl)-4,5,6,7-tetrahydrothieno[2,3-c]pyridine-3-carboxamide] | 25 to 50 nM | < 25 nM | < 25 nM | < 25 nM
O=C(Nc1cc(F)cc(OC(F)(F)F)c1)c1csc2c1CCN(Cc1cnc3[nH]ncc3c1)C2 [Example 174, 6-((1H-pyrazolo[3,4-b]pyridin-5-yl)methyl)-N-(3-fluoro-5-(trifluoromethoxy)phenyl)-4,5,6,7-tetrahydrothieno[2,3-c]pyridine-3-carboxamide] | 50 to 80 nM | < 25 nM | < 25 nM | < 25 nM
N#Cc1cc(NC(=O)c2csc3c2CCN(C(=O)c2cnn4ccncc24)C3)cc(C(F)(F)F)c1 [Example 184, N-(3-cyano-5-(trifluoromethyl)phenyl)-6-(pyrazolo[1,5-a]pyrazine-3-carbonyl)-4,5,6,7-tetrahydrothieno[2,3-c]pyridine-3-carboxamide] | 25 to 50 nM | < 25 nM | < 25 nM | < 25 nM
